According to patent US20090105322A1, “PHARMACEUTICAL COMPOSITION COMPRISING VALSARTAN” (priority 2003, published 2009):

Assays:
[1] = test system: rapid pacing induced heart failure; assay: Rapid pacing induced heart failure model in mini pigs; format: in vivo; settings: valsartan in combination with an ACE inhibitor, compared to either ACE inhibition or AT1-receptor blockade alone
Description: The effect of valsartan alone and in combination with an ACE inhibitor was studied in a model of rapid pacing induced heart failure in mini pigs.

[2] = test system: AF occurrence in patients with symptomatic HF (EF<40% and dilated ventricle-LVIDD>2.9); assay: Occurrence of AF from adverse event reports in the Val-HeFT trial; format: in vivo, human
Procedure: The occurrence of AF was evaluated based on adverse event reports in the patients with symptomatic heart failure (ejection fraction<40% and dilated ventricle-left ventricular internal diastolic diameter (LVIDD)>2.9) enrolled in the Val-HeFT trial. The Val-HeFT trial is set forth in Example 2. The occurrence of AF was evaluated based on adverse event reports in the patients with symptomatic HF (EF<40% and dilated ventricle-LVIDD>2.9) enrolled in the Val-HeFT trial (set forth in Example 2). Patients were randomized to valsartan or placebo on top of the prescribed treatments for heart failure. During the 23 months of follow-up of the study, AF was reported in 328/5000 patients (6.6%), 132/2506 (5.27%) in the valsartan allocated patients and 196/2494 (7.86%) in those allocated to placebo (p=0.0002). […] This is a multicountry, randomized, double-blind, forced titration, parallel, placebo-controlled trial. Patients will be stratified according to their use of beta blockers at randomization. At Visit 2, patients who meet the randomization criteria will be stratified according to their use of beta blockers and randomized to receive either valsartan 40 mg b.i.d. or placebo (Level 1). After 2 weeks of treatment (Visit 3), patients will be titrated up to receive either valsartan 80 mg b.i.d. or placebo, respectively (Level 2). The criteria for titration are given below. Following another 2 week treatment period (Visit 4), patients will again be titrated up to receive valsartan 160 mg b.i.d. or placebo, respectively (Level 3). The criteria for titration are given below. Patients not tolerating the highest dose of valsartan will be titrated down to the next lower dose after 2 weeks of treatment (Visit 5).

[3] = test system: systolic and diastolic blood pressure in patients with essential arterial hypertension; assay: Treatment of patients with essential arterial hypertension; format: in vivo, human; settings: 80 mg o.d.; compared with ACE inhibitors and other antihypertensive medications
Description: Valsartan (CGP 48933) is an orally active, potent and specific competitive Ang II antagonist at the level of the AT1-receptor subtype.

[4] = test system: cardiac hemodynamics in CHF patients (NYHA Class II-IV); assay: Protocol 103: chronic central hemodynamic effects in non-ACE inhibitor treated CHF patients; format: in vivo, human; settings: 40, 80 and 160 mg b.i.d. for 4 weeks; preliminary trial results
Procedure: Two Phase II studies (Protocols 103 and 104) have been recently completed. Protocol 103 is a randomized, double-blind, placebo-controlled, parallel group, dose ranging trial to determine the chronic central hemodynamic effects of valsartan 40 mg b.i.d., 80 mg b.i.d., 160 mg b.i.d. and lisinopril 10 mg o.d. administered for 4 weeks to non-ACE inhibitor treated CHF patients (NYHA Class II-IV).

Structure (SMILES): CCCCC(=O)N(Cc1ccc(-c2ccccc2-c2nnn[nH]2)cc1)[C@H](C(=O)O)C(C)C [valsartan, (S)-N-(1-carboxy-2-methyl-prop-1-yl)-N-pentanoyl-N-[2; (1H-tetrazol-5-yl)biphenyl-4-yl-methyl]amine]
- Left ventricular function and geometry, and myocyte inotropic response [1]: further beneficial effects on left ventricular function and geometry, and myocyte inotropic response
- AF reported (percent of allocated patients) ([2]; 23 months of follow-up, valsartan on top of prescribed heart failure treatments, vs placebo 7.86%, p=0.0002): 5.27%
- AF reported (patients with AF / patients allocated) ([2]; 23 months of follow-up, valsartan on top of prescribed heart failure treatments, vs placebo 196/2494): 132/2506
- Reduction of the incidence of AF ([2]; valsartan added to prescribed therapy (93% ACE-inhibitors, 35% beta-blockers)): ~35%
- RR for AF occurrence (logistic regression analysis) ([2]; valsartan treatment as independent predictor, 95% CI: 0.52-0.82): 0.65
- Decreases in systolic and diastolic blood pressure [3]: comparable to those achieved by treatment with ACE inhibitors and other antihypertensive medications
- Tolerability profile [3]: more favorable tolerability profile
- Cardiac hemodynamics versus placebo [4]: clinically relevant and statistically significant improvements in cardiac hemodynamics versus placebo
